The NIST ThermoML archive (doi:10.1021/je030215z)

What was measured:
[1] = 298.15 K; 101.33 kPa; Liquid
[2] = excess molar enthalpy (molar enthalpy of mixing); xn = mol fraction of the nth substance listed; details: 298.15 K, 101.33 kPa, Liquid, Flow calorimetry

CCCCCCCCCC [decane]
Details | mass density [kg/m3]
[1] | 726.3

CCCCCCCCCCCC [dodecane]
Details | mass density [kg/m3]
[1] | 745.32

CCCCCCC [heptane]
Details | mass density [kg/m3]
[1] | 680.17

C=CCCCC [hex-1-ene]
Details | mass density [kg/m3]
[1] | 668.73

C=CCCCC [hex-1-ene] + CCCCCCC
[2]
Details | excess molar enthalpy [kcal/mol]
x1 = 0.05 | 0.00266
x1 = 0.1 | 0.00507
x1 = 0.1499 | 0.00724
x1 = 0.1998 | 0.00898
x1 = 0.2496 | 0.0107
x1 = 0.2998 | 0.0121
x1 = 0.35 | 0.0131
x1 = 0.3984 | 0.0141
x1 = 0.4492 | 0.0146
x1 = 0.5005 | 0.0147
x1 = 0.5498 | 0.0147
x1 = 0.6 | 0.0143
x1 = 0.6496 | 0.0135
x1 = 0.6992 | 0.0126
x1 = 0.7497 | 0.0113
x1 = 0.8 | 0.00988
x1 = 0.8499 | 0.0079
x1 = 0.9 | 0.00559
x1 = 0.95 | 0.0028

C=CCCCC [hex-1-ene] + CCCCCCCC
[2]
Details | excess molar enthalpy [kcal/mol]
x1 = 0.05 | 0.00272
x1 = 0.1 | 0.00532
x1 = 0.15 | 0.0078
x1 = 0.2036 | 0.00995
x1 = 0.2496 | 0.0115
x1 = 0.3 | 0.0131
x1 = 0.3497 | 0.0143
x1 = 0.3998 | 0.0153
x1 = 0.45 | 0.0158
x1 = 0.5 | 0.0162
x1 = 0.5499 | 0.0161
x1 = 0.5994 | 0.0157
x1 = 0.65 | 0.015
x1 = 0.6998 | 0.014
x1 = 0.7501 | 0.0126
x1 = 0.8002 | 0.0108
x1 = 0.8499 | 0.00882
x1 = 0.9 | 0.00628
x1 = 0.95 | 0.00332
